{"source": "patent US20180228795A1", "about": "“COMBINATION THERAPY FOR CANCER” (Eli Lilly and Company, priority 2015, published 2018)", "key": {"PDX TNBC Model MAXF 508": {"system": "PDX TNBC Model MAXF 508", "assay": "Antitumor effects in PDX mouse model of TNBC", "assay_type": "in vivo", "conditions": "PDX model MAXF 508; A 10 mg/kg SC BID 3 days on/4 off ×4; B 7.5 mg/kg PO BID×28; versus vehicle", "method_in_brief": "(§1)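 Read-out: relative tumor volume (T/T0) from twice-weekly caliper measurements, expressed as % ΔT/ΔC or % Regression. Mice carried subcutaneous PDX fragments, treated from 150-250 mm^3 with CHK1 inhibitor (10 mg/kg SC BID, 3 on/4 off ×4) and/or PI3K/mTOR inhibitor (7.5 mg/kg PO BID×28).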"}, "PDX TNBC Model ST821": {"system": "PDX TNBC Model ST821", "assay": "Antitumor effects in PDX mouse model of TNBC", "assay_type": "in vivo", "conditions": "A 10 mg/kg SC BID 3 days on/4 off ×4, B 7.5 mg/kg PO BID×28, versus vehicle", "method_in_brief": "as §1"}}}
{"smiles": "CO[C@@H](C)Cn1c(=O)n(C)c2cnc3ccc(-c4cncc(C(C)(C)O)c4)cc3c21", "note": "[Compound B, 8-[5-(1-hydroxy-1-methylethyl)pyridin-3-yl]-1-[(2S)-2-methoxypropyl]-3-methyl-1,3-dihydro-2H-imidazo[4,5-c]quinolin-2-one]", "values": [{"measurement": "% Rsp. (% ΔT/ΔC or % Regression)", "setting": "PDX TNBC Model MAXF 508", "value": 41.3, "unit": "%"}, {"measurement": "% Rsp. (% ΔT/ΔC or % Regression)", "setting": "PDX TNBC Model ST821", "value": 78.5, "unit": "%"}]}
{"smiles": "COc1cccc(OCCCN)c1-c1cc(Nc2cnc(C#N)cn2)n[nH]1.CS(=O)(=O)O", "note": "[Compound A, 5-(5-(2-(3-aminopropoxy)-6-methoxyphenyl)-1H-pyrazol-3-ylamino)pyrazine-2-carbonitrile methanesulfonate hydrate]", "values": [{"measurement": "% Rsp. (% ΔT/ΔC or % Regression)", "setting": "PDX TNBC Model MAXF 508", "value": "−100.0", "unit": "%"}, {"measurement": "% Rsp. (% ΔT/ΔC or % Regression)", "setting": "PDX TNBC Model ST821", "value": "−81.9", "unit": "%"}]}
